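These data come from cells grown in 96-well plates and exposed to compound for 48 hours at five concentrations. At the GI50, growth is halved.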 Activity calls are given as the source filed them. No stated cut-off is given here; in the data, active = GI50 up to about 1.1 µM and inactive = higher.
What was measured:
Test in all cases: DTP human tumour cell line panel, 48 h
U-251 = system: U-251
HCT-15 = system: HCT-15
EKVX = system: EKVX
K562 = system: K562
NCI-H23 = system: NCI-H23
SK-OV-3 = system: SK-OV-3
SF-268 = system: SF-268
SN12C = system: SN12C
OVCAR-3 = system: OVCAR-3
MOLT-4 = system: MOLT-4
UO-31 = system: UO-31
SR = system: SR
OVCAR-8 = system: OVCAR-8
TK-10 = system: TK-10
UACC-62 = system: UACC-62
SK-MEL-5 = system: SK-MEL-5
SK-MEL-2 = system: SK-MEL-2
CCRF-CEM = system: CCRF-CEM
NCI-H226 = system: NCI-H226

Measured: GI50

Clc1ccc(C2=Nc3ccccc3SC(c3cccs3)C2)cc1 (configuration not stated)
14 µM: HCT-15
inactive: U-251 11.8 µM | EKVX 17.5 µM | K562 5.16 µM | NCI-H23 14.1 µM | SK-OV-3 16.8 µM | SF-268 16.3 µM | SN12C 15.6 µM | OVCAR-3 11.5 µM | MOLT-4 20.9 µM | UO-31 13.6 µM | SR 2.43 µM | OVCAR-8 16.2 µM | TK-10 17.3 µM | UACC-62 15.3 µM | SK-MEL-5 16.5 µM

CCOC(=O)c1cc(/C=C/C(C)=C/C(=O)OC)oc1C
inactive: U-251 > 100 µM | EKVX > 100 µM | K562 > 100 µM | SK-MEL-2 > 100 µM | NCI-H23 > 100 µM | SK-OV-3 > 100 µM | SF-268 > 100 µM | CCRF-CEM > 100 µM | OVCAR-3 > 100 µM | MOLT-4 > 100 µM | UO-31 > 100 µM | SR > 100 µM | OVCAR-8 > 100 µM | TK-10 > 100 µM | UACC-62 > 100 µM
> 100 µM: HCT-15

CCC1c2cc3n(c(=O)c2COC1O)Cc1c-3nc2ccccc2c1Cl (configuration not stated)
> 94.2 µM: HCT-15
inactive: U-251 9.86 µM | EKVX 66.1 µM | K562 32.2 µM | SK-MEL-2 > 100 µM | NCI-H23 28.7 µM | SK-OV-3 > 75 µM | SF-268 14.4 µM | CCRF-CEM 3.34 µM | SN12C 10.1 µM | OVCAR-3 > 100 µM | MOLT-4 3.28 µM | UO-31 19.4 µM | NCI-H226 39.6 µM | OVCAR-8 55.3 µM | TK-10 > 100 µM | UACC-62 6.95 µM | SK-MEL-5 29.4 µM

N=C(N)NNC(=O)CCCCCCCC(=O)NNC(=N)N
inactive: U-251 > 100 µM | EKVX > 100 µM | K562 > 100 µM | SK-MEL-2 > 100 µM | NCI-H23 > 100 µM | SK-OV-3 > 100 µM | SF-268 > 100 µM | CCRF-CEM > 100 µM | SN12C > 100 µM | UO-31 > 100 µM | TK-10 > 100 µM | UACC-62 > 100 µM | SK-MEL-5 > 100 µM
17.9 µM: HCT-15

COc1nc(OC)c2c(=O)oc(-c3ccccc3)cc2n1
> 100 µM: HCT-15
inactive: U-251 > 100 µM | EKVX > 100 µM | K562 > 100 µM | SK-MEL-2 > 100 µM | NCI-H23 > 100 µM | SK-OV-3 > 100 µM | SF-268 > 100 µM | SN12C > 100 µM | OVCAR-3 > 10 µM | MOLT-4 > 100 µM | UO-31 > 100 µM | SR > 100 µM | NCI-H226 > 100 µM | OVCAR-8 > 100 µM | TK-10 > 100 µM | UACC-62 > 100 µM | SK-MEL-5 > 100 µM

CCCc1c2c([nH]c(=O)c1C)C(=O)c1[nH]c(=O)c(C)c(CCC)c1C2=O
inactive: K562 17.4 µM | NCI-H23 23.2 µM | SF-268 23 µM | CCRF-CEM 21.7 µM | SN12C 3.64 µM | OVCAR-3 1.46 µM | MOLT-4 3.93 µM | UO-31 56.4 µM | SR 5.56 µM | NCI-H226 77.3 µM | OVCAR-8 4.47 µM | TK-10 73.8 µM | SK-MEL-5 3.29 µM
11.2 µM: HCT-15

CO[C@H](C(=O)O[C@H]1C(=O)N2CC[C@@H]3CCC[C@H]1C32C)c1ccccc1 (some centres not stated)
inactive: U-251 > 100 µM | EKVX > 100 µM | K562 > 100 µM | SK-MEL-2 > 100 µM | NCI-H23 > 100 µM | SK-OV-3 > 100 µM | SF-268 > 100 µM | CCRF-CEM > 100 µM | SN12C > 100 µM | OVCAR-3 > 100 µM | MOLT-4 > 100 µM | UO-31 > 100 µM | SR > 100 µM | NCI-H226 > 100 µM | OVCAR-8 > 100 µM | UACC-62 > 100 µM | SK-MEL-5 > 100 µM
> 10 µM: HCT-15

O=C1C=CC(=O)c2nc3c(cc21)CCC3
inactive: U-251 78.5 µM | K562 16.9 µM | NCI-H23 25 µM | SF-268 17.9 µM | CCRF-CEM 5.61 µM | SN12C 19.1 µM | OVCAR-3 17.5 µM | MOLT-4 11.6 µM | UO-31 > 100 µM | SR 5.92 µM | OVCAR-8 15.2 µM | TK-10 18.5 µM | UACC-62 18.6 µM | SK-MEL-5 20.4 µM

Nc1cccc2c1C(=O)c1cccc(N)c1C2=O
> 100 µM: HCT-15
inactive: U-251 > 100 µM | EKVX > 100 µM | K562 > 100 µM | SK-MEL-2 > 100 µM | NCI-H23 > 100 µM | SK-OV-3 > 100 µM | SF-268 > 100 µM | CCRF-CEM > 100 µM | SN12C > 100 µM | OVCAR-3 > 100 µM | MOLT-4 > 100 µM | UO-31 > 100 µM | NCI-H226 > 100 µM | OVCAR-8 > 100 µM | TK-10 > 100 µM | UACC-62 > 100 µM | SK-MEL-5 > 100 µM

Cc1nc(-c2nc(C)c(C(=O)/C=C/c3ccc(N(C)C)cc3)s2)sc1C(=O)/C=C/c1ccc(N(C)C)cc1
inactive: U-251 > 100 µM | EKVX > 100 µM | K562 33.4 µM | SK-MEL-2 > 100 µM | NCI-H23 > 100 µM | SK-OV-3 > 100 µM | SF-268 > 100 µM | CCRF-CEM > 100 µM | SN12C > 100 µM | OVCAR-3 > 100 µM | MOLT-4 > 100 µM | UO-31 > 100 µM | SR > 100 µM | NCI-H226 > 100 µM | OVCAR-8 > 100 µM | TK-10 > 100 µM | UACC-62 18.5 µM
37.8 µM: HCT-15

Nc1n[n+]([O-])c2ccccc2[n+]1[O-] [TIRAPAZAMINE]
> 100 µM: HCT-15
inactive: U-251 > 100 µM | EKVX > 100 µM | K562 > 100 µM | SK-MEL-2 > 100 µM | SK-OV-3 73.1 µM | SF-268 > 100 µM | CCRF-CEM > 100 µM | SN12C > 100 µM | OVCAR-3 > 100 µM | MOLT-4 37.4 µM | UO-31 > 100 µM | NCI-H226 > 100 µM | OVCAR-8 > 100 µM | TK-10 > 100 µM | UACC-62 61.7 µM | SK-MEL-5 40.5 µM

CC1=C[C@H]2c3c([nH]c4ccccc34)C(c3c[nH]c4ccccc34)[C@H]2CC1 (some centres not stated)
inactive: U-251 4.55 µM | EKVX 12.4 µM | K562 3.75 µM | NCI-H23 3.33 µM | SK-OV-3 13.7 µM | CCRF-CEM 3.36 µM | SN12C 3.75 µM | MOLT-4 2.15 µM | UO-31 > 10 µM | NCI-H226 11 µM | OVCAR-8 8.59 µM | TK-10 14.5 µM | UACC-62 10.6 µM | SK-MEL-5 11.9 µM
5.41 µM: HCT-15

CN(C)c1ccc(C(C=C2c3ccccc3Sc3ccccc32)=C(C#N)C#N)cc1
inactive: U-251 37.6 µM | EKVX > 100 µM | K562 5.65 µM | SK-MEL-2 > 100 µM | NCI-H23 > 100 µM | SK-OV-3 > 100 µM | SF-268 > 100 µM | CCRF-CEM > 100 µM | SN12C > 100 µM | OVCAR-3 45.7 µM | MOLT-4 > 100 µM | UO-31 82.8 µM | OVCAR-8 94.8 µM | TK-10 > 100 µM | UACC-62 57.4 µM | SK-MEL-5 > 100 µM
> 100 µM: HCT-15

Cc1ccc([S+](c2ccccc2)c2cc(C)ccc2C)cc1 (configuration not stated)
inactive: EKVX 1.17 µM | SF-268 6.64 µM | SN12C 5.94 µM | OVCAR-3 2.26 µM | MOLT-4 3.65 µM | UO-31 > 100 µM | SR 24.6 µM | OVCAR-8 4.59 µM | UACC-62 4.52 µM
active: K562 0.374 µM | CCRF-CEM 0.438 µM | SK-MEL-5 0.53 µM

COc1ccc2c(c1)CC1NC2Cc2ccccc21 (configuration not stated)
inactive: U-251 > 100 µM | EKVX > 100 µM | K562 > 100 µM | SK-MEL-2 > 100 µM | NCI-H23 > 100 µM | SK-OV-3 > 100 µM | SF-268 > 100 µM | CCRF-CEM > 100 µM | SN12C > 10 µM | OVCAR-3 > 100 µM | MOLT-4 > 100 µM | UO-31 > 100 µM | OVCAR-8 > 100 µM | TK-10 > 100 µM | UACC-62 > 100 µM | SK-MEL-5 > 100 µM
> 100 µM: HCT-15

Brc1cccc(C2SCc3nc4ccccc4n32)c1 (configuration not stated)
15.2 µM: HCT-15
inactive: U-251 17 µM | EKVX 18.7 µM | K562 9.98 µM | NCI-H23 13.9 µM | SK-OV-3 21.6 µM | SF-268 33.5 µM | CCRF-CEM 26.2 µM | SN12C 13.8 µM | OVCAR-3 15.2 µM | MOLT-4 22.6 µM | UO-31 9.46 µM | SR 15.7 µM | NCI-H226 11.2 µM | OVCAR-8 22.5 µM | TK-10 25.1 µM | UACC-62 12.9 µM | SK-MEL-5 6.4 µM

CCOC(=O)C1=C(Nc2cccc3ccccc23)OCC1=O
inactive: U-251 > 100 µM | EKVX > 100 µM | K562 > 100 µM | SK-MEL-2 > 100 µM | NCI-H23 > 100 µM | SK-OV-3 > 100 µM | SF-268 > 100 µM | CCRF-CEM > 100 µM | SN12C > 100 µM | OVCAR-3 > 100 µM | MOLT-4 > 100 µM | UO-31 > 100 µM | SR > 100 µM | NCI-H226 > 100 µM | OVCAR-8 > 100 µM | UACC-62 > 100 µM | SK-MEL-5 > 100 µM
